According to patent US11331369B2, “Endoparasitic depsipeptides” (Zoetis Services LLC, priority 2017, dated 2022):

Columns and labels:
[1] = system: 4th stage larvae (L4) of Dirofilaria immitis; assay: Dirofilaria immitis, L4 Stage (DiL4) In Vitro Assay; assay type: cell-based; settings: Dirofilaria immitis, 72 h, read-out: DiL4 Minimum Effective Dose (MED), approximately 72 hours incubation; L4 larvae assessed for survival or paralysis
[2] = system: microfilariae of Dirofilaria immitis; assay: Dirofilaria immitis, Microfilaria (DiMF) In vitro Assay; assay type: cell-based; settings: 72 h, read-out: DiMF Minimum Effective Dose (MED), approximately 72 hours incubation, microfilariae assessed for survival or paralysis

SMILES | minimal effective concentration [1] | minimal effective concentration [2]
CC(C)C[C@H]1C(=O)O[C@H](Cc2ccc(Cn3nc(C#N)cc3C#N)cc2)C(=O)N(C)[C@@H](CC(C)C)C(=O)O[C@H](C)C(=O)N(C)[C@@H](CC(C)C)C(=O)O[C@H](Cc2ccc(Cn3cc(Br)c(C#N)n3)cc2)C(=O)N(C)[C@@H](CC(C)C)C(=O)O[C@H](C)C(=O)N1C [Example 1a-1, 1-(4-(((2R,5S,8R,11S,14R,17S,20R,23S)-14-(4-((4-bromo-3-cyano-1H-pyrazol-1-yl)methyl)benzyl)-5,11,17,23-tetraisobutyl-4,8,10,16,20,22-hexamethyl-3,6,9,12,15,18,21,24-octaoxo-1,7,13,19-tetraoxa-4,10,16,22-tetraazacyclotetracosan-2-yl)methyl)benzyl)-1H-pyrazole-3,5-dicarbonitrile] | 0.0001 to 0.001 µM | 0.001 to 0.01 µM
CC(C)C[C@H]1C(=O)O[C@H](Cc2ccc(Cn3nc(C(F)F)cc3C3CC3)cc2)C(=O)N(C)[C@@H](CC(C)C)C(=O)O[C@H](C)C(=O)N(C)[C@@H](CC(C)C)C(=O)O[C@H](Cc2ccc(Cn3nc(C#N)cc3C#N)cc2)C(=O)N(C)[C@@H](CC(C)C)C(=O)O[C@H](C)C(=O)N1C [Example 1a-7, 1-(4-(((2R,5S,8R,11 S,14R,17S,20R,23S)-14-(4-((5-cyclopropyl-3-(difluoromethyl)-1H-pyrazol-1-yl)methyl)benzyl)-5,11,17,23-tetraisobutyl-4,8,10,16,20,22-hexamethyl-3,6,9,12,15,18,21,24-octaoxo-1,7,13,19-tetraoxa-4,10,16,22-tetraazacyclotetracosan-2-yl)methyl)benzyl)-1H-pyrazole-3,5-dicarbonitrile] | ≤ 0.0001 µM | 0.001 to 0.01 µM
CC(C)C[C@H]1C(=O)O[C@H](Cc2ccc(Cn3nccc3-c3ccccc3)cc2)C(=O)N(C)[C@@H](CC(C)C)C(=O)O[C@H](C)C(=O)N(C)[C@@H](CC(C)C)C(=O)O[C@H](Cc2ccc(Cn3nc(C#N)cc3C#N)cc2)C(=O)N(C)[C@@H](CC(C)C)C(=O)O[C@H](C)C(=O)N1C [Example 1a-12, 1-(4-(((2R,5S,8R,11S,14R,17S,20R,23S)-5,11,17,23-tetraisobutyl-4,8,10,16,20,22-hexamethyl-3,6,9,12,15,18,21,24-octaoxo-14-(4-((5-phenyl-1H-pyrazol-1-yl)methyl)benzyl)-1,7,13,19-tetraoxa-4,10,16,22-tetraazacyclotetracosan-2-yl)methyl)benzyl)-1H-pyrazole-3,5-dicarbonitrile] | 0.0001 to 0.001 µM | 0.01 to 0.1 µM
CCOc1cn(Cc2ccc(C[C@H]3OC(=O)[C@H](CC(C)C)N(C)C(=O)[C@@H](C)OC(=O)[C@H](CC(C)C)N(C)C(=O)[C@@H](Cc4ccc(Cn5ncc(OCC)c5C)cc4)OC(=O)[C@H](CC(C)C)N(C)C(=O)[C@@H](C)OC(=O)[C@H](CC(C)C)N(C)C3=O)cc2)nc1C [Example 1a-38, (3S,6R,9S,12R,15S,18R,21S,24R)-6-[[4-[(4-ethoxy-3-methyl-pyrazol-1-yl)methyl]phenyl]methyl]-18-[[4-[(4-ethoxy-5-methyl-pyrazol-1-yl)methyl]phenyl]methyl]-3,9,15,21-tetraisobutyl-4,10,12,16,22,24-hexamethyl-1,7,13,19-tetraoxa-4,10,16,22-tetrazacyclotetracosane-2,5,8,11,14,17,20,23-octaone] | 0.001 to 0.01 µM | 0.001 to 0.01 µM
Cc1nn(Cc2ccc(C[C@H]3OC(=O)[C@H](CC(C)C)N(C)C(=O)[C@@H](C)OC(=O)[C@H](CC(C)C)N(C)C(=O)[C@@H](Cc4ccc(Cn5nc(C)c(Cl)c5C)cc4)OC(=O)[C@H](CC(C)C)N(C)C(=O)[C@@H](C)OC(=O)[C@H](CC(C)C)N(C)C3=O)cc2)c(C)c1Cl [Example 1b-51, (3S,6R,9S,12R,15S,18R,21S,24R)-6,18-bis(4-((4-chloro-3,5-dimethyl-1H-pyrazol-1-yl)methyl)benzyl)-3,9,15,21-tetraisobutyl-4,10,12,16,22,24-hexamethyl-1,7,13,19-tetraoxa-4,10,16,22-tetraazacyclotetracosan-2,5,8,11,14,17,20,23-octaone] | 0.0001 to 0.001 µM | 
CC(C)C[C@H]1C(=O)O[C@H](Cc2ccc(Cn3cc(OCC4CC4)cn3)cc2)C(=O)N(C)[C@@H](CC(C)C)C(=O)O[C@H](C)C(=O)N(C)[C@@H](CC(C)C)C(=O)O[C@H](Cc2ccc(Cn3cc(OCC4CC4)cn3)cc2)C(=O)N(C)[C@@H](CC(C)C)C(=O)O[C@H](C)C(=O)N1C [Example 1b-146, (3S,6R,9S,12R,15S,18R,21S,24R)-6,18-bis(4-((4-(cyclopropylmethoxy)-1H-pyrazol-1-yl)methyl)benzyl)-3,9,15,21-tetraisobutyl-4,10,12,16,22,24-hexamethyl-1,7,13,19-tetraoxa-4,10,16,22-tetraazacyclotetracosan-2,5,8,11,14,17,20,23-octaone] | 0.001 to 0.01 µM | 
CC(C)C[C@H]1C(=O)O[C@H](Cc2ccc(Cn3nccc3-c3ccc(Cl)cc3)cc2)C(=O)N(C)[C@@H](CC(C)C)C(=O)O[C@H](C)C(=O)N(C)[C@@H](CC(C)C)C(=O)O[C@H](Cc2ccc(Cn3nccc3-c3ccc(Cl)cc3)cc2)C(=O)N(C)[C@@H](CC(C)C)C(=O)O[C@H](C)C(=O)N1C [Example 1b-153, (3S,6R,9S,12R,15S,18R,21S,24R)-6,18-bis(4-((5-(4-chlorophenyl)-1H-pyrazol-1-yl)methyl)benzyl)-3,9,15,21-tetraisobutyl-4,10,12,16,22,24-hexamethyl-1,7,13,19-tetraoxa-4,10,16,22-tetraazacyclotetracosan-2,5,8,11,14,17,20,23-octaone] | 0.001 to 0.01 µM | 
COc1cc(C)n(Cc2ccc(C[C@H]3OC(=O)[C@H](CC(C)C)N(C)C(=O)[C@@H](C)OC(=O)[C@H](CC(C)C)N(C)C(=O)[C@@H](Cc4ccc(Cn5nc(OC)cc5C)cc4)OC(=O)[C@H](CC(C)C)N(C)C(=O)[C@@H](C)OC(=O)[C@H](CC(C)C)N(C)C3=O)cc2)n1 [Example 1b-168, (3S,6R,9S,12R,15S,18R,21S,24R)-3,9,15,21-tetraisobutyl-6,18-bis(4-((3-methoxy-5-methyl-1H-pyrazol-1-yl)methyl)benzyl)-4,10,12,16,22,24-hexamethyl-1,7,13,19-tetraoxa-4,10,16,22-tetraazacyclotetracosan-2,5,8,11,14,17,20,23-octaone] | 0.001 to 0.01 µM | 
CCOc1cc(-c2ccccc2)nn1Cc1ccc(C[C@H]2OC(=O)[C@H](CC(C)C)N(C)C(=O)[C@@H](C)OC(=O)[C@H](CC(C)C)N(C)C(=O)[C@@H](Cc3ccc(Cn4nc(-c5ccccc5)cc4OCC)cc3)OC(=O)[C@H](CC(C)C)N(C)C(=O)[C@@H](C)OC(=O)[C@H](CC(C)C)N(C)C2=O)cc1 [Example 1b-178, (3S,6R,9S,12R,15S,18R,21S,24R)-6,18-bis(4-((5-ethoxy-3-phenyl-1H-pyrazol-1-yl)methyl)benzyl)-3,9,15,21-tetraisobutyl-4,10,12,16,22,24-hexamethyl-1,7,13,19-tetraoxa-4,10,16,22-tetraazacyclotetracosan-2,5,8,11,14,17,20,23-octaone] | 0.001 to 0.01 µM | 
Cc1cc(C#N)nn1Cc1ccc(C[C@H]2OC(=O)[C@H](CC(C)C)N(C)C(=O)[C@@H](C)OC(=O)[C@H](CC(C)C)N(C)C(=O)[C@@H](Cc3ccc(Cn4nc(C#N)cc4C)cc3)OC(=O)[C@H](CC(C)C)N(C)C(=O)[C@@H](C)OC(=O)[C@H](CC(C)C)N(C)C2=O)cc1 [Example 1b-194, 1,1′-(((((2R,5S,8R,11S,14R,17S,20R,23S)-5,11,17,23-tetraisobutyl-4,8,10,16,20,22-hexamethyl-3,6,9,12,15,18,21,24-octaoxo-1,7,13,19-tetraoxa-4,10,16,22-tetraazacyclotetracosane-2,14-diyl)bis(methylene))bis(4,1-phenylene))bis(methylene))bis(5-methyl-1H-pyrazole-3-carbonitrile)] | 0.0001 to 0.001 µM | 
CC(C)C[C@H]1C(=O)O[C@H](Cc2ccc(C(C)(C)n3cc(C4CC4)cn3)cc2)C(=O)N(C)[C@@H](CC(C)C)C(=O)O[C@H](C)C(=O)N(C)[C@@H](CC(C)C)C(=O)O[C@H](Cc2ccc(C(C)(C)n3cc(C4CC4)cn3)cc2)C(=O)N(C)[C@@H](CC(C)C)C(=O)O[C@H](C)C(=O)N1C [Example 1c-8, (3S,6R,9S,12R,15S,18R,21S,24R)-6,18-bis(4-(2-(4-cyclopropyl-1H-pyrazol-1-yl)propan-2-yl)benzyl)-3,9,15,21-tetraisobutyl-4,10,12,16,22,24-hexamethyl-1,7,13,19-tetraoxa-4,10,16,22-tetraazacyclotetracosan-2,5,8,11,14,17,20,23-octaone] | ≤ 0.0001 µM | 
CC(C)C[C@H]1C(=O)O[C@H](Cc2ccc(Cn3ccnc3C(F)(F)F)cc2)C(=O)N(C)[C@@H](CC(C)C)C(=O)O[C@H](C)C(=O)N(C)[C@@H](CC(C)C)C(=O)O[C@H](Cc2ccc(Cn3ccnc3C(F)(F)F)cc2)C(=O)N(C)[C@@H](CC(C)C)C(=O)O[C@H](C)C(=O)N1C [Example 6-15, (3S,6R,9S,12R,15S,18R,21S,24R)-3,9,15,21-tetraisobutyl-4,6,10,16,18,22-hexamethyl-12,24-bis(4-((2-(trifluoromethyl)-1H-imidazol-1-yl)methyl)benzyl)-1,7,13,19-tetraoxa-4,10,16,22-tetraazacyclotetracosan-2,5,8,11,14,17,20,23-octaone] | 0.0001 to 0.001 µM | 
CC(C)C[C@H]1C(=O)O[C@H](Cc2ccc(CN3CCOc4ccncc43)cc2)C(=O)N(C)[C@@H](CC(C)C)C(=O)O[C@H](C)C(=O)N(C)[C@@H](CC(C)C)C(=O)O[C@H](Cc2ccc(CN3CCOc4ccncc43)cc2)C(=O)N(C)[C@@H](CC(C)C)C(=O)O[C@H](C)C(=O)N1C [Example 9-63, (3S,6R,9S,12R,15S,18R,21S,24R)-6,18-bis[[4-(2,3-dihydropyrido[4,3-b][1,4]oxazin-4-ylmethyl)phenyl]methyl]-3,9,15,21-tetraisobutyl-4,10,12,16,22,24-hexamethyl-1,7,13,19-tetraoxa-4,10,16,22-tetrazacyclotetracosane-2,5,8,11,14,17,20,23-octaone] | 0.001 to 0.01 µM | 
